Source: patent US5688767A, “Treatment of endotoxin-associated disorders with cationic peptides” (priority 1996, dated 1997)
In brackets after ≈: the same amount, converted by molar mass.

Experiments:
P. aeruginosa H103 LPS = assay: Dansyl polymyxin (DPx) displacement from purified LPS; assay type: binding, Pseudomonas aeruginosa; settings: 2.5 μM DPx, 3 μg/ml LPS, 5 mM HEPES pH 7.2, average of at least three trials; for IC50: read-out: I50, Value in μM
Experimental: In this assay, DPx was incubated with LPS to saturate the binding sites and then, while polycationic compounds are titrated into the reaction, displacement of the DPx was monitored by the decrease in fluorescence (FIG. 9). P. aeruginosa LPS was isolated as previously described (Darveau, et al., J of Bacteriology, 155:831, 1983) Dansyl polymyxin was synthesized as described by Schindler, et al., B. Antimicrobial Agents and Chemo, 8:95, 1975.
The method of Moore, et al., (Antimicrobial Agents and Chemo., 29:496, 1987), was used to test how much DPx was needed to saturate the binding sties on LPS. Briefly, 5 μl samples of 100 μM DPx were titrated sequentially into 1 ml of 3 μg/ml of LPS until a maximum fluorescence was reached. The fluorescence was measured in a Perkin-Elmer 650-10S fluorescence spectrophotometer with an excitation wavelength of 340 nm and an emission wavelength of 485 nm using slit widths of 5 nm. […] For the binding inhibition assays (Moore, et al., Antimicrobial Agents and Chemo., 29:496, 1987), 2.5 μM DPx was added to 3 μg/ml of H103 LPS in 5 mM HEPES pH 7.2. The test compounds were added 5 μl at a time and the decrease in fluorescence due to displacement of the DPx from the LPS was recorded.
When the data was plotted as a double reciprocal plot (FIG. 10), the X-intercept provided a value that is equal to -1/I50.

E. coli = assay: microbe, parasite or virus in culture; assay type: cell-based, Escherichia coli
Experimental: (§1) The minimum inhibitory concentrations of (MIC) of CEME, CEMA and melittin were determined for a number of different bacteria (Table 2). Briefly, cells were grown overnight at 37° C. in LB-S (Luria broth without any salt supplement) and diluted one in 10,000 in the same medium to give concentrations of about 10^4 to 10^5 CFU/ml. The broth dilutions were set up in a 96 well microtiter plate by putting 200 μl of LB-S containing the initial concentration of antibiotic or compound in column 1 and 100 μl of the same medium in columns 2-12. The compounds were diluted by taking 100 μl of broth from column 1 and mixing it with column 2, resulting in a one in two dilution. This was continued to column 10. Finally, 10 μl of bacteria were pipetted into columns 1-11, and the plates incubated overnight at 37° C. The next day the plates were scored for growth in the wells, and the MIC determined.
(§2) Bacteria included the Bort strain of E. coli (Bortolussi, et al., Inf. Immun., 25:293, 1979) that was originally derived from a case of neonatal meningitis, and which is therefore considered a relevant pathogenic strain to study, and the 0111:B4 strain of E. coli (kindly provided by Dr. D. Morrison) which is a standard source of endotoxin. (Kelly, et al., Inf. Immun., 59:4491, 1991). In addition, P. aeruginosa PA01 strain H103, P. aeruginosa M2, P. aeruginosa K799, Eschericha coli UB 1005, Enterobacter cloacae 218S, Salmonella typhimurium MS7953s, Klebsiella pneumoniae ATCC 13883, Xanthomonas maltophilia ATCC 13637, and Acinetobacter calcoacetious 8193 were employed. LPS was obtained from E. coli Bort by the technique of Westphal and Jann, (Westphal, et al., Acad. Press, Inc. NY., 5:83) and from P. aeruginosa H103 by the method of Darveau and Hancock, (Darveau, et al., J. Bacteriol, 155:831, […]). E. coli 0111:B4 LPS was purchased from Sigma.

P. AERUGINOSA H309 = assay: microbe, parasite or virus in culture; assay type: cell-based, Pseudomonas aeruginosa
Experimental: as §1, with “Briefly,” for “The minimum inhibitory concentrations of (MIC) of CEME, CEMA and melittin were determined for a number of different bacteria (Table 2). Briefly,”

[1] = test system: P. aeruginosa H309 Whole Cells; assay: DPx binding inhibition using whole cells; set-up: species or system Pseudomonas aeruginosa; settings: DPx at 90-100% binding saturation, average of at least three trials
Experimental: For DPx binding inhibition assays using whole cells instead of purified LPS, H309 cells were prepared the same way as for the lysozyme lysis assay. The assay consisted of 10 μl of cells at an OD600 of 0.5, 990 μl of 5 mM HEPES pH 7.2 and 5 mM KCN, and the concentration of DPx that gave 90-100% binding saturation. […] Compounds were titrated in, and I50 values were determined as described above.

E. cloacae = assay: microbe, parasite or virus in culture; assay type: cell-based, Enterobacter cloacae
Experimental: as §1, §2

P. aeruginosa = assay: microbe, parasite or virus in culture; assay type: cell-based, Pseudomonas aeruginosa
Experimental: as §1, §2

[2] = strain UB1005, Parent of DC2 (Table 2)
[3] = strain 218S, Parent of 218R1 (Table 2)
[4] = strain H188, Antibiotic sensitive

Row | Compound | I50, Value in μg/ml (P. aeruginosa H103 LPS) [µg/mL] | IC50 (P. aeruginosa H103 LPS) [µM] | MIC (E. coli; [2]) [µg/mL] | MIC (P. AERUGINOSA H309; +5 mM Mg^++) [µg/mL] | MIC (P. AERUGINOSA H309; +80 mM Na^+) [µg/mL] | MIC (P. AERUGINOSA H309; No addition) [µg/mL] | I50, Value in μg/ml [1] [µg/mL] | MIC (E. cloacae; [3]) [µg/mL] | MIC (P. aeruginosa; strain H187, Parent of H188) [µg/mL] | MIC (P. aeruginosa; [4]) [µg/mL] | MIC (P. aeruginosa; strain H309, Wildtype) [µg/mL] | further results
1 | CC[C@H](C)[C@H](NC(=O)CNC(=O)[C@@H](NC(=O)[C@H](CCCCN)NC(=O)[C@H](CCCCN)NC(=O)[C@H](Cc1ccccc1)NC(=O)[C@H](CC(C)C)NC(=O)[C@H](CCCCN)NC(=O)[C@H](Cc1c[nH]c2ccccc12)NC(=O)[C@@H](N)CCCCN)[C@@H](C)CC)C(=O)NCC(=O)N[C@@H](C)C(=O)N[C@H](C(=O)N[C@@H](CC(C)C)C(=O)N[C@@H](CCCCN)C(=O)N[C@H](C(=O)N[C@@H](CC(C)C)C(=O)N[C@H](C(=O)N[C@H](C(=O)NCC(=O)N[C@@H](CC(C)C)C(=O)N1CCC[C@H]1C(=O)N[C@@H](C)C(=O)N[C@@H](CC(C)C)C(=O)N[C@@H](CCCCN)C(=O)N[C@@H](CC(C)C)C(=O)N[C@H](C(=O)N[C@@H](CCCCN)C(=O)O)[C@@H](C)O)[C@@H](C)O)[C@@H](C)O)C(C)C)C(C)C [CEMA] | 4.12 ± 0.36 | 1.32 ± 0.117 | 2.8 (≈ 0.913 µM) | 22.4 (≈ 7.31 µM) | 5.6 (≈ 1.83 µM) | 2.8 (≈ 0.913 µM) | 1.15 ± 0.09 | 2.8 (≈ 0.913 µM) | 2.8 (≈ 0.913 µM) | 1.4 (≈ 0.457 µM) | 2.8 (≈ 0.913 µM) | MIC (E. coli; Escherichia coli 0111:B4): 4 µg/mL (≈ 1.3 µM); MIC (E. coli; Escherichia coli Bort): 8 µg/mL (≈ 2.61 µM); MIC (E. coli; Escherichia coli UB1005 (Table 9)): 4 µg/mL (≈ 1.3 µM); MIC (E. coli; strain DC2, Polymyxin sensitive): 0.7 µg/mL (≈ 0.228 µM); MIC (E. coli; strain SC9251, Parent of SC9252): 1.4 µg/mL (≈ 0.457 µM); MIC (E. coli; strain SC9252, Polymyxin resistant): 1.4 µg/mL (≈ 0.457 µM); IC50 ([1]; read-out: I50, Value in μM): 0.37 ± 0.03 µM; MIC (E. cloacae; Enterobacter cloacae 218S (Table 9)): 4 µg/mL (≈ 1.3 µM); MIC (E. cloacae; strain 218R1, β-lactam resistant): 1.4 µg/mL (≈ 0.457 µM); MIC (P. aeruginosa; Pseudomonas aeruginosa H103): 8 µg/mL (≈ 2.61 µM); MIC (P. aeruginosa; Pseudomonas aeruginosa K799): 2.8 µg/mL (≈ 0.913 µM)
2 | polymyxin B | 2.97 ± 0.07 | 1.51 ± 0.04 | 0.5 | 1 | 0.5 | 0.5 | 3.7 ± 1.20 | 0.5 | 0.5 | 0.06 | 0.5 | 
